The text below walks through data of patent US20190124928A1, “ENHANCED HERBICIDAL COMPOSITIONS OF TRANSITION METAL CHELATES” (W. Neudorff GMBH KG, priority 2016, published 2019).

SMILES strings stand for the structures.

Data set [1] concerns perennial ryegrass. Put plainly: Example 10 greenhouse dandelion and turf test with sodium sulfate, grass damage. The data set is classed as in vivo, Lolium perenne. The settings on record: sprayed once at 200 ml/m^2, six days after first spraying. The protocol:
(§1) Unless otherwise specified, all of the iron solutions were made using the same molar concentration of iron ion as chelating agent. In the liquid formulations samples were prepared by diluting a metal chelate, iron HEDTA (Neu 1173H) or iron EDTA to the desired level of iron as specified using stirring. Neu 1173H contains the stabilizer sodium citrate at 1.5% prior to dilution. Dilutions of iron HEDTA to the level of 0.25% Fe incorporate 0.08% sodium citrate into the spray solutions. KCl was then diluted and added to the diluted metal chelate.
(§2) In the dry formulations, the iron chelate was simply blended with KCl and with other fertilizer ingredients. Samples were usually prepared within 48 hours of treatment. All of the outside tests were done on areas of grass and white clover that were at least 2 months old. For the greenhouse tests, white clover and dandelion were grown in a commercial greenhouse mix using supplemental lighting and heating. Each plant was grown in a 2¼ inch pot to a minimum diameter of 15-20 cm. Perennial ryegrass was grown in 2¼ inch pots in the same greenhouse conditions as above and they are at least 4 weeks old at the time of application. […]
(§3) All plant damage was visually assessed using a percentage rating scale from 0 (no injury) to 100% (death). […] Percentage control was calculated from the respective weed cover data (e.g. preferably using the Henderson & Tilton formula). […]

The subject of the next data set is dandelion. Put plainly: Example 10 greenhouse dandelion and turf test with sodium sulfate, dandelion damage. The format is in vivo, Taraxacum officinale. The conditions noted are these: sprayed once at 200 ml/m^2, six days after first spraying. The protocol: as §1, §2, §3
Data set [2] concerns perennial ryegrass. Put plainly: Example 5 greenhouse white clover and turf test, grass damage. The conditions noted are these: sprayed twice at 100 ml/m^2, seven days after first spraying. The format is in vivo, Lolium perenne. The protocol: as §1, §2, §3
The test system of another data set is white clover. Put plainly: Example 5 greenhouse white clover and turf test, white clover damage. The format is in vivo, Trifolium repens. The settings on record: sprayed twice at 100 ml/m^2, seven days after first spraying. As to the method:
as §1, §2, §3

Consider `O=S(=O)([O-])[O-].[Na+].[Na+]` [Na2SO4 2%, sodium sulfate], for which, in the data set with perennial ryegrass [1], the “Grass Damage (%)” value turned out to be 4%. Further, the “Dandelion damage (%)” value with dandelion amounted to 0%.

Consider `[Cl-].[K+]` [KCl 2%, potassium chloride], for which the “Grass Damage (%)” value in the data set with perennial ryegrass [2] came out at 0%. For the same compound, the “White Clover Damage (%)” value in the data set with white clover is 0%.
